Data as given in patent US20090137527A1, “Compositions and methods for modulating immune function” (Resolvyx Pharmaceuticals, Inc., priority 2007, published 2009).
Read-outs that look alike come from different tables or passages of the source.

Legend:
rats with CIA = test: Rat collagen-induced arthritis (CIA): paw swelling and knee histopathology; type: in vivo
Procedure: Female Lewis rats were anesthetized with 3-5% isoflurane and arthritis was induced by intradermal injection of 0.3 mL (100 μL at three different sites) of an emulsion […] 1.5 mg/mL of type II bovine collagen, CII (Elastin Products Inc., Cat# CM276), in incomplete Freund's adjuvant (IFA) at the base of the tail on day 0 and 6. Control rats were injected with an equal amount of IFA only.
The volume of both hind paws were measured using a water displacement plethysmometer (Ugo Basile, Biological Research Apparatus, Italy), and the onset of arthritis was indicated by increased paw volume, which appeared approximately on day 11 post injection. Both paw volumes and body weights were measured throughout the study every 2-3 days. Nineteen to twenty-one days after CII injection, the rats were euthanized with CO2. Blood was collected by cardiac puncture and serum was saved.
were measured under two different treatment regimens. In the first (prophylactic) treatment regimen, Compound X was administered i.v., twice daily, at 0.3 mg/kg from day 0 to day 6 or 10. For ex vivo studies, animals were euthanized on day 6 after the last injection and their inguinal lymph nodes were harvested. […] For ex vivo studies, animals were euthanized on day 16 and inguinal lymph nodes were harvested. Venous blood samples were collected during the course of treatment. For CD3 activation, 96-well flat bottom plates were coated with anti-CD3 mAb (eBioscience, clone G4.18) 1 μg/mL. Plates were stored overnight at 4° C., and were subsequently rinsed with PBS once before use. Bovine Type II collagen for tissue culture was purchased from Chondrex (Cat# 2022) and was reconstituted according to the manufacturer's instructions. All data were processed and analyzed by t-test using GraphPad Prism software.
After the animals were euthanized, both hind paws and knees were removed, hind paws were weighed, and the paws and knees were placed in formalin. Following 1-2 days in fixative and 4-5 days in decalcifier, the ankle joints were cut in half longitudinally, and the knees were cut in half in the frontal plane. The joints were then processed, embedded, sectioned and stained with toluidine blue. Collagen arthritic ankles and knees were given scores of 0-5 for inflammation, pannus formation and bone resorption according to the following criteria:
1 Minimal infiltration of inflammatory cells in periarticular tissue 2 Mild infiltration 3 Moderate infiltration with moderate edema 4 Marked infiltration with marked edema 5 Severe infiltration with severe edema […]

[1] = tested on: CD3-stimulated mouse splenocytes; test: Ex vivo anti-CD3 stimulated cytokine production of mouse spleen cells after in vivo dosing; conditions: for inhibition at 0.03 mg/kg: Mus musculus, Splenocyte, iv, single i.v. 0.03 mg/kg, 30 min before harvest, vs vehicle
Procedure: BALB/c female mice (n=5), 6-8 weeks old, were given either i.v. injection of Compound X or vehicle once a day for 5 days or a single i.v. injection of Compound X or vehicle. Thirty minutes after the last injection, spleens were removed under sterile conditions, and a single cell suspension was made by pressing through a nylon strainer (BD Falcon Cat# 352340). Cells were spun at 1500 rpm for 10 minutes, and the liquid was aspirated. RBC was lysed by adding 3 mL of ACK solution (Lonza Cat# 10-458E) for 5 minutes. The tube was filled with RPMI media and spun. Cells were resuspended in RPMI/10% FCS. To plates pre-coated with anti-CD3 (per the procedure described below) were added 4×10^5 cells per well. Supernatants were harvested after 18 hours of culture. Cytokine levels were measured by Bioplex (Biorad), according to manufacturer's instructions.
For CD3 stimulation, anti-mouse CD3 mAb (BD Pharmingen clone 145-2C11) was used at 0.2 μg/mL in PBS to coat flat bottom 96-well plate at 4° C. overnight. Plates were rinsed twice with PBS before use.
To measure this effect, mice were given daily i.v. injections of 0.3 mg/kg of Compound X for five days. Spleen cells were then harvested and stimulated with anti-CD3 antibody in vitro overnight.
Mice were given a single i.v. injection of 0.03 mg/kg Compound X 30 minutes before spleen cells were harvested. T cells were isolated by magnetic beads, and the purity of T cells was >95% as measured by flow cytometry. Spleen cells or purified T cells were stimulated with 0.2 μg/mL anti-CD3 overnight, and cytokine levels were measured by Bioplex.
The ability of in vivo treatment with Compound X to inhibit anti-CD3 stimulated cytokine production was measured by treating mice (n=5) with a single i.v. injection of 0.03 mg/kg of Compound X thirty minutes before spleens were harvested. Spleen cells were stimulated with anti-CD3 mAb overnight, and cytokine levels were measured by Bioplex. The resulting percent inhibition of cytokine production by total spleen cells as compared with vehicle treated animals is shown in Table 2. These studies indicate that Compound X, when dosed to naïve animals, inhibited ex vivo CD3-stimulated cytokine production in splenocytes by approximately 35-60%.

[2] = therapeutic, twice daily i.v. 0.3 mg/kg, days 8 to 19

Q: What does the source list for `CC[C@@H](O)/C=C/C=C\C[C@@H](O)/C=C/C=C/C=C\[C@@H](O)CCCC(=O)O` [Compound X]?
A: paw swelling (as measured by ankle diameter) (rats with CIA; prophylactic, twice daily i.v. 0.3 mg/kg, days 0 to 10): significant reduction; bone resorption and joint damage (rats with CIA; therapeutic dosing): protected; knee histopathology scores: inflammation, pannus, cartilage damage, bone resorption (rats with CIA; [2]): significant reduction; mean ankle joint volume (rats with CIA; [2]): significant reduction; inhibition at 0.03 mg/kg ([1]; anti-CD3 overnight, read-out: % Inhibition of IL-6 production by total spleen cells): 55.2%; inhibition at 0.03 mg/kg ([1]; anti-CD3 overnight, read-out: % Inhibition of IL-13 production by total spleen cells): 68.3%; inhibition at 0.03 mg/kg ([1]; anti-CD3 overnight, read-out: % Inhibition of INFγ production by total spleen cells): 78.5%; inhibition at 0.03 mg/kg ([1]; anti-CD3 overnight, read-out: % Inhibition of Il-2 production by total spleen cells): 62.6%; inhibition at 0.03 mg/kg ([1]; anti-CD3 overnight, read-out: % Inhibition of Il-4 production by total spleen cells): 64.9%; inhibition at 0.03 mg/kg ([1]; anti-CD3 overnight, read-out: % Inhibition of MIP1α production by total spleen cells): 42.7%; inhibition at 0.03 mg/kg ([1]; anti-CD3 overnight, read-out: % Inhibition of MIP1β production by total spleen cells): 46.1%; inhibition at 0.03 mg/kg ([1]; anti-CD3 overnight, read-out: % Inhibition of RANTES production by total spleen cells): 37.2%; inhibition at 0.03 mg/kg ([1]; anti-CD3 overnight, read-out: % Inhibition of TNFα production by total spleen cells): 50.7%; cytokine release of CD3-stimulated mouse splenocytes ([1]; daily i.v. 0.3 mg/kg for five days, anti-CD3 overnight): inhibits; inhibition of ex vivo CD3-stimulated cytokine production in splenocytes ([1]; dosed to naïve animals, summary of studies): 35-60%; CD3-induced cytokine release, spleen cells or purified T cells ([1]; single i.v. 0.03 mg/kg 30 minutes before harvest, 0.2 μg/mL anti-CD3 overnight): reduction
